Measurements taken from patent US11505523B2, “HDAC8 inhibitors for treating cancer” (City of Hope, priority 2013, dated 2022).

Columns and labels:
HDAC8 = HDAC8 (Homo sapiens (Human), UniProt Q9BY41); experiment: Inhibition of HDAC8; assay type: biochemical
HeLa nuclear HDACs = experiment: Inhibition of HeLa nuclear HDACs (HeLa nuclear extract, mainly HDACs1-3); assay type: biochemical; details: read-out: HeLa HDAC IC50
HDAC1 = HDAC1 (Homo sapiens (Human), UniProt Q13547); experiment: Inhibition of purified HDAC1; assay type: biochemical; details: class I; read-out: HDAC 1 IC50
HDAC1, sequence (Q13547 whole entry, species assumed): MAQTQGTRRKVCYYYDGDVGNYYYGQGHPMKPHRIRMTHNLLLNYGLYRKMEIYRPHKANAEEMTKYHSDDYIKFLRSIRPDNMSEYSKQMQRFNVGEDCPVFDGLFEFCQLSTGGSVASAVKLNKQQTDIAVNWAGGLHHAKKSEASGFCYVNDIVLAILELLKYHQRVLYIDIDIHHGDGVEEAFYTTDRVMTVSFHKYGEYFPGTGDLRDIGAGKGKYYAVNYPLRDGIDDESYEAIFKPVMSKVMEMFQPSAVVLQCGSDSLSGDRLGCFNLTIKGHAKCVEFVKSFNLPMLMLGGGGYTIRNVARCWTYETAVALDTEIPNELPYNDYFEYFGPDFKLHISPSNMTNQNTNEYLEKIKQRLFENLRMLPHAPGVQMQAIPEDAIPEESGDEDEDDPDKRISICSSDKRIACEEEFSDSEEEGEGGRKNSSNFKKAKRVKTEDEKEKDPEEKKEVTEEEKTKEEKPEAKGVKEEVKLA

HDAC2 = HDAC2 (Homo sapiens (Human), UniProt Q92769); experiment: Inhibition of purified HDAC2; details: read-out: HDAC 2 IC50; class I
HDAC3 = HDAC3 (Homo sapiens (Human), UniProt O15379); experiment: Inhibition of purified HDAC3; details: read-out: HDAC 3 IC50; class I
HDAC3, sequence (O15379 whole entry, looked up, species assumed): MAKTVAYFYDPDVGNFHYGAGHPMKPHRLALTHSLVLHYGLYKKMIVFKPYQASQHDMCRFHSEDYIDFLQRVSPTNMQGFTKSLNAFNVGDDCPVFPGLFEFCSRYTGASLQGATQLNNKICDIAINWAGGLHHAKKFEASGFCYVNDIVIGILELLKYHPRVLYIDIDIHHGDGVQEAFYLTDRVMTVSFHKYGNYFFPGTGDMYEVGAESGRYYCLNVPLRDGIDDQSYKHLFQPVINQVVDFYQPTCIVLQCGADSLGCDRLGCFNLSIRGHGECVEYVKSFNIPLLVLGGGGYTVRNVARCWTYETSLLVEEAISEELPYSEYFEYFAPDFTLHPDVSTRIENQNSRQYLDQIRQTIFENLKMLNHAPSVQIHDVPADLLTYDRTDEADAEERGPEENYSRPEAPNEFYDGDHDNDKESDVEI
HDAC3, sequence (Q9Y618 whole entry partner, looked up, species assumed): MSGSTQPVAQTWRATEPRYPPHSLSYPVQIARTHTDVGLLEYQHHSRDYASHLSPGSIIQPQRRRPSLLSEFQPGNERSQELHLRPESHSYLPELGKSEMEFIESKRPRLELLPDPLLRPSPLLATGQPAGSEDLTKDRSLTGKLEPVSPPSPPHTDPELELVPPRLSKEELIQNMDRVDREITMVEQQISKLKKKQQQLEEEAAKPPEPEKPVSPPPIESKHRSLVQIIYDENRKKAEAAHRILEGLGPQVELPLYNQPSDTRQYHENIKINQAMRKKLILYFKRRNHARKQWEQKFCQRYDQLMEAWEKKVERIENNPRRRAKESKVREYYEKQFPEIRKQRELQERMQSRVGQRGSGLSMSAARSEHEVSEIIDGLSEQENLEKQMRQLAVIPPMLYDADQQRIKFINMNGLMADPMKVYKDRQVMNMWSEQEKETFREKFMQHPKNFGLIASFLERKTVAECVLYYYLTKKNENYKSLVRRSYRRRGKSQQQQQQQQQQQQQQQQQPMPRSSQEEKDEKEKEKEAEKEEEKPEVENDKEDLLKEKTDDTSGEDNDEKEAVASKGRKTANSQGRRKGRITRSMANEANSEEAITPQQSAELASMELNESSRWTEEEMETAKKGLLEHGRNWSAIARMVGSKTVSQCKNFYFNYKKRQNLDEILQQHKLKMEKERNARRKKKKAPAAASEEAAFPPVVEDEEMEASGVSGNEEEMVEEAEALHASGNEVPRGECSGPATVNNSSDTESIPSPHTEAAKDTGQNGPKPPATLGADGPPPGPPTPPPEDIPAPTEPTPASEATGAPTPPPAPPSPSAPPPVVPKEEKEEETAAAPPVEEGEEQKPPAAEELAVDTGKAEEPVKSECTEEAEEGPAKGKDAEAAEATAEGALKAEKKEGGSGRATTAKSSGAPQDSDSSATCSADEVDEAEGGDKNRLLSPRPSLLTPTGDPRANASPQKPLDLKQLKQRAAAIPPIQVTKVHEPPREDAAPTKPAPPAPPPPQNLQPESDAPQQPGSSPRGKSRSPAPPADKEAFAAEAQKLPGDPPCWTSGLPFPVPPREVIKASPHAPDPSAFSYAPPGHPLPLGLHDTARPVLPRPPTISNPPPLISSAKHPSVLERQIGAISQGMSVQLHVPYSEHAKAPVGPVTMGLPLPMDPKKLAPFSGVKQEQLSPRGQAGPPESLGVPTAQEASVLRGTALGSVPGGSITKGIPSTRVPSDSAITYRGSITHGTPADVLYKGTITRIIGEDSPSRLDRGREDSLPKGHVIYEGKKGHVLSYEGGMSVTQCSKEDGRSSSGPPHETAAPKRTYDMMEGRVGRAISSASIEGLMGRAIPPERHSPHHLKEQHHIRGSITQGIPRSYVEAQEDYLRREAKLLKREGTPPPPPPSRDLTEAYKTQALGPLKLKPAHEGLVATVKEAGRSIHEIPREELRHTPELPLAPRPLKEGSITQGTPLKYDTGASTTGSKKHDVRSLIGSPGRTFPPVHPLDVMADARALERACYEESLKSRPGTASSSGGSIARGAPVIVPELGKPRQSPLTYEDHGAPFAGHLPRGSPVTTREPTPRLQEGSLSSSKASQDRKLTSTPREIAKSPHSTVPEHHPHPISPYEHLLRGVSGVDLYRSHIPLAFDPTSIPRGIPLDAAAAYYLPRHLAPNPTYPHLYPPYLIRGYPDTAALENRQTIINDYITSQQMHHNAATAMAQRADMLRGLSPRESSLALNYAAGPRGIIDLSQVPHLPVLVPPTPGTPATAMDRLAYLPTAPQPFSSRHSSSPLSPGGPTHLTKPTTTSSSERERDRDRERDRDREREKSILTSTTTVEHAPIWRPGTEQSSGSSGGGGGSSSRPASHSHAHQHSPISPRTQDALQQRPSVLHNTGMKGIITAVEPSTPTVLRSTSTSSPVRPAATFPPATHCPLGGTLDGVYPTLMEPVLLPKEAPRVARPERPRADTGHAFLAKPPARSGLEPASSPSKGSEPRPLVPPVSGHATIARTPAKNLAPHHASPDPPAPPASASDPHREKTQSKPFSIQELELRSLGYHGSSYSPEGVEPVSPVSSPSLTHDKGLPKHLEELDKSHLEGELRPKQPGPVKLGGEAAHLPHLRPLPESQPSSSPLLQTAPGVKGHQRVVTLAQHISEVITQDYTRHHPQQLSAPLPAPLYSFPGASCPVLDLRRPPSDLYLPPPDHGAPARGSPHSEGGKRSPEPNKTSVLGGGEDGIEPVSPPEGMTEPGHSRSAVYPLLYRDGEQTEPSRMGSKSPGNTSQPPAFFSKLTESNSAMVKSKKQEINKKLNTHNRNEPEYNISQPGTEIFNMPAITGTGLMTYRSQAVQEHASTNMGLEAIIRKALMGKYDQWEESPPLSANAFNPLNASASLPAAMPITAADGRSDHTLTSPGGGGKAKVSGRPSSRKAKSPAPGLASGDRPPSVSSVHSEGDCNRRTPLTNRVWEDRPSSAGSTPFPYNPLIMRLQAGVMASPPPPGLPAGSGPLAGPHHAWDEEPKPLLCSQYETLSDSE

HDAC4 = HDAC4 (Homo sapiens (Human), UniProt P56524); experiment: Inhibition of purified HDAC4; details: read-out: HDAC 4 IC50; class II
HDAC6 = HDAC6 (Homo sapiens (Human), UniProt Q9UBN7); experiment: Inhibition of purified HDAC6; details: read-out: HDAC 6 IC50; class II
HDAC10 = HDAC10 (Homo sapiens (Human), UniProt Q969S8); experiment: Inhibition of purified HDAC10; details: read-out: HDAC 10 IC50; class II
HDAC10, sequence (Q969S8 whole entry, species assumed): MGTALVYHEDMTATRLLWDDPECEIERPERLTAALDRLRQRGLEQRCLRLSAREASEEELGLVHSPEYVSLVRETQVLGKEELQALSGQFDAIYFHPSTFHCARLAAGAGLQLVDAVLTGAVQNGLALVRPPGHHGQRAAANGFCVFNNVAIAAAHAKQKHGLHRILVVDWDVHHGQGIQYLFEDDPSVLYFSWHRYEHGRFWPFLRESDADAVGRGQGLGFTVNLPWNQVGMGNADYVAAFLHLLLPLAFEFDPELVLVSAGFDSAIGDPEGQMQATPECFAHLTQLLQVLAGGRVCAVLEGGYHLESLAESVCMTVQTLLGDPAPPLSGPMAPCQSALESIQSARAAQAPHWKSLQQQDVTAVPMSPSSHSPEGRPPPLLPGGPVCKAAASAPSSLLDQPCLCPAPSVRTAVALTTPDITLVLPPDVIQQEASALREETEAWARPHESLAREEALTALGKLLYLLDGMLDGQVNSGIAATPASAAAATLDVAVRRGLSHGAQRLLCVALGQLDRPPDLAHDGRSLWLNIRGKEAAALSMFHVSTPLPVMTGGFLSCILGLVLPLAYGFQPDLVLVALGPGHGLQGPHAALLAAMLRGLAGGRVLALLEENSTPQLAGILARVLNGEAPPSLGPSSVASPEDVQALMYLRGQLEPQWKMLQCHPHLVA

HDAC11 = HDAC11 (Homo sapiens (Human), UniProt Q96DB2); experiment: Inhibition of purified HDAC11; details: read-out: HDAC 11 IC50; class IV
HDAC11, sequence (Q96DB2 whole entry, species assumed): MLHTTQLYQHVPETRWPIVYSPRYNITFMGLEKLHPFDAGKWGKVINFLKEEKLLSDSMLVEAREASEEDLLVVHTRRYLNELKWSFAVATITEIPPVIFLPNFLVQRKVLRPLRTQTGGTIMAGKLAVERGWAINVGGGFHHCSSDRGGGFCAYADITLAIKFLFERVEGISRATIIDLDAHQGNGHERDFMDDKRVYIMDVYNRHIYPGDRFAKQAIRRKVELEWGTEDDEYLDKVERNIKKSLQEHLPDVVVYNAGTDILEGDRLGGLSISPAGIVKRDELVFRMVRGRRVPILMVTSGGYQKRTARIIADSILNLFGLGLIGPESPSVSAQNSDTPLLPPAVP

H1299 cells = experiment: Cytotoxicity / anti-proliferative activity in H1299 lung cancer cells; details: read-out: Cytotoxicity IC50 H1299; mean SD of three determinations
Cl1-1 cells = experiment: Cytotoxicity / anti-proliferative activity in CL1-1 lung cancer cells; details: read-out: Cytotoxicity IC50 Cl1-1; mean SD of three determinations
CL1-5 cells = experiment: Cytotoxicity / anti-proliferative activity in CL1-5 lung cancer cells; details: read-out: Cytotoxicity IC50 Cl1-5; mean SD of three determinations
[1] = tested on: Ac-p53 (K379) in 32D-CM cells; experiment: Western blot of Ac-p53 in CBFβ-SMMHC (CM)-expressing 32D cells; assay type: cell-based
Source text: Cells were lysed in RIPA buffer containing protease inhibitor cocktail (Roche) and MG132. Antibodies used for IP were conjugated with protein A/G beads using the antibody cross-linking kit (Pierce Biotechnology, Rockford, Ill.) following manufacturer's protocol. For Western blot, proteins were resolved in 10% SDS-PAGE. The antibodies used induced anti-FLAG (Sigma), anti-HDAC8, anti-CBFβ (Santa Cruz), anti-p53 (DO-1), anti-Ac-p53 (K379) (Cell Signaling), anti-p53 (Cell signaling) and anti-β-actin (Sigma). Horseradish peroxidase-conjugated anti-rabbit or anti-mouse secondary antibodies (Jackson ImmunoResearch, West Grove Pa.) were used, followed by detection using the SuperFemto kit (Pierce Biotechnology, Rockford, Ill.).
Class 1 HDACs, including HDAC1, HDAC2, and HDAC3, reportedly could inhibit p53 activity by deacetylating p53 [41-43]. […] To test this, we used lentivirus (pLKO. 1) mediated expression of 2 independent small-hairpin (sh)-RNA sequences against Hdac8 to specifically knock-down Hdac8 in 32D-CM cells. Cells were exposed to IR (3Gy) and analyzed for levels of p53 acetylation 6 h after.

[2] = tested on: p53 target genes in 32D-CM cells; experiment: qRT-PCR of p53 target genes in 32D-CM cells; assay type: cell-based; details: 10 μM, 16 h

HDAC8, sequence (Q9BY41 whole entry): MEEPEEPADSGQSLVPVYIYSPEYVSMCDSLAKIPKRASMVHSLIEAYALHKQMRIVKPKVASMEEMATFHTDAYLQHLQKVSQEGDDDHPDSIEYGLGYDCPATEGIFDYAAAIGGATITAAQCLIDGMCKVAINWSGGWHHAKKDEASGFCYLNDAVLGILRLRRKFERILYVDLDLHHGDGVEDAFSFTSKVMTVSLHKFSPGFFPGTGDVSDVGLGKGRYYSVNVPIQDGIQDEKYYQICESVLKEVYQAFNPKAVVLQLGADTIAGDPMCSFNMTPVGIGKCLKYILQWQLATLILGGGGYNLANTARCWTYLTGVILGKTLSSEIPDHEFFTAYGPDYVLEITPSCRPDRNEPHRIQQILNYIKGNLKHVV

Row | SMILES | fold more potent than 22a (HDAC8) (HDAC8) [fold] | fold more potent than PCI34051 for HDAC8 (HDAC8) | IC50 (HDAC8; mean SD of three determinations) [nM] | HDAC8 inhibitory activity compared with PCI34051 (HDAC8; result in words) | IC50 (HeLa nuclear HDACs) [nM] | IC50 (HDAC1) [nM] | IC50 (HDAC2) [nM] | IC50 (HDAC3) [nM] | IC50 (HDAC4) [nM] | IC50 (HDAC6) [nM] | IC50 (HDAC10) [nM] | IC50 (HDAC11) [nM] | IC50 (H1299 cells) [nM] | IC50 (Cl1-1 cells) [nM] | IC50 (CL1-5 cells) [nM] | Ac-p53 level in CM-expressing cells ([1]; Western blot, 6 h) | Ac-p53 level, in combination with Nutlin-3 ([1]; compared to Nutlin-3 alone) | activation of p53 targets (Bax, Puma, p21, Gadd45b and LincRNA-p21) [2]
1 | COc1ccc(/C=C/C(=O)NO)c(-c2ccc(Br)cc2)c1 [Compound 22b, (E)-N-Hydroxy-4-methoxy-2-(4-bromophenyl)cinnamide] | 13 | around ten | 5.7 ± 0.1 | superior to PCI34051 | > 10000 | 4.5 ± 0.1 | > 20 | 4.8 ± 0.5 | > 20 | > 20 | > 20 | > 20 | > 10 | > 10 | > 10 |  |  | 
2 | COc1ccc(Cn2ccc3ccc(C(=O)NO)cc32)cc1 [PCI34051, reference compound] |  |  |  |  | > 10000 |  |  |  |  |  |  |  | > 10 | > 10 | > 10 | remarkably increased Ac-p53 | enhanced Ac-p53 compared to Nutlin-3 alone | Variable levels of activation
